Values quoted from earlier work in US20230201393A1, “DI[…] AND METHODS USING POLYMER COMPOSITIONS THAT FORM CHLORINE DIOXIDE GAS” (priority 2020, published 2023).

Assays:
poliovirus 1 = details: 4 ppm ClO2, 5 minutes of exposure

For [O][Cl+][O-] [Chlorine dioxide], the inactivation (poliovirus 1) is given as at least 99.9%, the miscibility in water is given as “up to 60 g/L” and the survival rate (Influenza A; 0.03 ppm ClO2 administered after, versus 30% when untreated) is given as 100%. For the same compound, the log kill (Influenza A; 0.03 ppm of ClO2 administered at the same time as the virus) was 4 log.
